Source: patent publication EP4497440A1, “USE OF 7-TRIFLUOROMETHYL-7ALPHA,25-DIHYDROXYCHOLESTEROL IN THE TREATMENT AND MODULATION OF AUTOIMMUNE AND INFLAMMATORY DISEASES OF THE NERVOUS SYSTEM AND NEURODEGENERATIVE DISEASES” (Gdanski Uniwersytet Medyczny, priority 2023, dated 2025)
Several values for one entry are separate records, joined by “and”; a condition that tells them apart may be missing. Identical values can stand only once. Entries after “also recorded” stand apart in the source; their conditions may differ.

Columns and labels:
lymphocytes = assay: Short-term pharmacology model: blood count after a single injection; assay type: in vivo, mice; details: single subcutaneous injection
Description: Mouse groups in the short-term pharmacology model (Fig 10): Control: one vehicle injection (canola oil). The number of lymphocytes in the group is marked on the graph with the transverse line. The vehicle injection was administered to the mice subcutaneously (100 µl), following which the mice were euthanized after 6 hours (8 mice), 12 hours (8 mice), 24 hours (8 mice), or 48 hours (8 mice).
The 0.8 mg/kg dose group: single injection with CF3-7α,25OHC at the dose of 0.8 mg/kg. The oxysterol injection was administered to the mice subcutaneously (100 µl), following which the mice were euthanized after 6 hours (8 mice), 12 hours (8 mice), 24 hours (8 mice), or 48 hours (8 mice).
The 4 mg/kg dose group: single injection with CF3-7α,25OHC at the dose of 4 mg/kg. The oxysterol injection was administered to the mice subcutaneously (100 µl), following which the mice were euthanized after 6 hours (8 mice), 12 hours (8 mice), 24 hours (8 mice), or 48 hours (8 mice).
The 20 mg/kg dose group: a single injection with CF3-7α,25OHC at the dose of 20 mg/kg. The oxysterol injection was administered to the mice subcutaneously (100 µl), following which the mice were euthanized after 6 hours (8 mice), 12 hours (8 mice), 24 hours (8 mice), or 48 hours (8 mice).
The 100 mg/kg dose group: a single injection with CF3-7α,25OHC at the dose of […]. […]

[1] = system: mouse organotypic cerebellar slices; assay: Remyelination of organotypic cerebellar slices after LPC demyelination (Mbp mRNA by quantitative PCR); assay type: cell-based; details: LPC 0.4 mg/ml, then treatment in serum-free culture medium for 14-16 days; barbadin 16 µM, 7α,25OHC 0.1 µM, NIBR189 10 µM; concentration of CF3-7α,25OHC not given; vs untreated LPC slices
Description: Organotypic cerebellar slices were sampled from ten-day old mice and then grown in an incubator for 14 days. After 14 days the myelin was chemically removed with LPC (0.4 mg/ml). Following the removal of the myelin sheaths, the slices were treated with: • 1. the control group: regular culture medium, without LPC • 2. LPC, then on serum-free culture medium for 14-16 days • 3. LPC followed by barbadin 16 µM in serum-free culture medium for 14-16 days • 4. LPC followed by 7α,25OHC 0.1 µM in serum-free culture medium for 14-16 days • 5. LPC followed by NIBR189 10 µM in serum-free culture medium for 14-16 days • 6. LPC followed by barbadin 16 µM + 7α,25OHC 0.1 µM in serum-free culture medium for 14-16 days
Once the experiment was completed (remyelination for 14-16 days) the slices were collected and MBP mRNA levels were measured by the PCR quantitative method. In the mouse organotypic cerebellar slices in which myelin sheaths were chemically removed with lysophosphatidylcholine (LPC) spontaneous myelin regeneration took place except for the slices treated with a selective EBI2 receptor antagonist (NIBR189). The results once again reveal key significance of EBI2 intracellular signalling for myelin regeneration. […] Barbadin, which inhibits internalisation of the EBI2 receptor, is necessary to achieve the therapeutic effect (faster remyelination) in the case of non-modified oxysterol (Fig 1 and Fig 2a).

Ch25h, Cyp7b1, Hsd3b7 = assay: mRNA level of synthesizing and degrading enzymes in the cerebellum, cuprizone model; assay type: in vivo, mice
white blood cells = assay: Cuprizone model: blood morphology (white blood cell counts); assay type: in vivo, mice
Description: C (Fig 7) or #3 (Fig 8 and 9) vehicle control group - the mice were fed with chow containing cuprizone for 9 weeks, and then with regular chow without cuprizone for another 2 weeks. Over the 2 weeks on regular chow the mice in the vehicle control group were first injected vehicle #1: DMSO (intraperitoneal injection), 150 µl once a day, and then vehicle #2: canola oil, subcutaneously, 150 µl once a day.
#4 (Fig 8 and 9) barbadin control group - the mice were fed with chow containing cuprizone for 9 weeks, and then with regular chow without cuprizone for another 2 weeks. Over the 2 weeks on regular chow the mice in the group were injected barbadin 0.3 mg/kg, intraperitoneally, 150 µl once a day, and then vehicle #2: canola oil, subcutaneously, 150 µl once a day.
E (Fig 7) or #5 experimental group with oxysterol CF3-7α,25OHC - the mice were fed with chow containing cuprizone for 9 weeks, and then with regular chow without cuprizone for another 2 weeks. Over the 2 weeks on regular chow the mice in the group were injected vehicle #1: DMSO, intraperitoneally, 150 µl once a day, and CF3-7α,25OHC, dose: 20 mg/kg, subcutaneously, 150 µl once a day.
#6 (Fig 8 and 9) experimental group with barbadin + oxysterol CF3-7α,25OHC - the mice were fed with chow containing cuprizone for 9 weeks, and then with regular chow without cuprizone for another 2 weeks. Over the 2 weeks on regular chow the mice in the group were injected barbadin, 0.3 mg/kg, intraperitoneally, 150 µl once a day, and then one hour following the barbadin injection they were injected CF3-7α,25OHC, dose: 20 mg/kg, subcutaneously, 150 µl once a day.
The blood from the heart was sampled after the mice had been euthanised, and blood morphology test was performed using a standard diagnostic analyser. […] The lymphocyte count in peripheral blood of the mice which had been injected with CF3-7α,25OHC was lower by 50% compared to the control group of mice injected with vehicles (gr. #3 or C). The specific action of CF3-7α,25OHC leading to reduction of the lymphocyte count in blood finds confirmation in the results obtained for the mice of groups #4 (or D) and #6 (or F). Compared to the control group, the lymphocyte count in blood in the group of mice injected with barbadin (#4 or D) was lower only by 21%, and in the group of mice injected with barbadin + CF3-7α,25OHC by 7%. Following interaction with CF3-7α,25OHC, barbadin blocks internalisation of the EBI2 receptor from the cell membrane. The absence of any significant effect related to the treatment with barbadin or barbadin + CF3-7α,25OHC indicates a specific action of CF3-7α,25OHC on the EBI2 receptor and the consequential effects of that action, namely reduction of the count of circulating lymphocytes in blood. Moreover, the number of monocytes in group #5 (or E: mice treated with CF3-7α,25OHC) was lower by as much as 66% and the total leukocyte count (lymphocytes and monocytes included) was also substantially lower (by 51%), though only in the group of mice injected with CF3-7α,25OHC. In our subsequent in vivo tests (short-term pharmacology) we confirmed the action of CF3-7α,25OHC. In that test, too, it reduced the count of white blood cells. CF3-7α,25OHC reduces the lymphocyte count as early as following the 4 mg/kg dose and the effect lasts for 24 hours following administration.

Ebi2 receptor = assay: Ebi2 mRNA level in the cerebellum, cuprizone model; assay type: in vivo, mice; details: during remyelination in the cuprizone model
[2] = after 14 days of treatment during remyelination in the cuprizone model

## C[C@H](CCCC(C)(C)O)[C@H]1CC[C@H]2[C@H]3[C@H](CC[C@]12C)[C@@]1(C)CC[C@H](O)CC1=C[C@]3(O)C(F)(F)F [CF3-7α,25OHC, cholestene-7β-trifluoromethyl,3β,7α,25-triol]
lymphocytes
  duration of the lymphocyte-reducing effect following administration: 24 h
lymphocytes; doses 0.8, 4, 20, 100 mg/kg, blood count after 6, 12, 24 or 48 hours
  lowest dose that reduces the level of lymphocytes: 4 mg/kg
[1]
  remyelination (Mbp expression): remyelinate quicker than slices not treated with anything; also recorded: remyelinate faster than the untreated slices
Ch25h, Cyp7b1, Hsd3b7
  expression level of the synthesizing (Ch25h, Cyp7b1) and degrading (Hsd3b7) enzymes: does not regulate the expression level
White blood cells; [2]
  drop in eosinophils: 43%
  drop in monocytes: 66%
  drop in neutrophils: 14%
White blood cells; after 14 days of treatment during remyelination in the cuprizone model, compared to vehicle group
  drop in the total number of white blood cells (total leukocyte count): 51%
White blood cells; after 14 days of treatment in the cuprizone model, CF3-7α,25OHC 20 mg/kg s.c., barbadin 0.3 mg/kg i.p., compared to vehicle group #3
  drop in lymphocytes (lymphocyte count in peripheral blood lower by): 51% and 50%
White blood cells; cuprizone model, group #5 (E)
  number of white blood cells (leukocytes, lymphocytes, monocytes): went down; also recorded: substantially reduced
Ebi2 receptor
  level of Ebi2 expression: increases the level of Ebi2 expression
